Data set [1] deals with T1, HER1-HER2 chimera (Homo sapiens, UniProt P04626).
T1 construct: HER2 cytoplasmic domain generates normal mitogenic and transforming signals in a chimeric receptor; expressed in transfected cells; host or cells: NIH3T3 (CSH12 cells); the other entry of the earlier key: EGFR (P00533, Epidermal growth factor receptor)
As to the kind of experiment: Selective-inhibition assay in CSH12 cells (receptor phosphotyrosine, Western blot). It is filed as cell-based. The settings on record: CSH12 cells expressing HER1-HER2 chimera, 1 hour incubation, EGF stimulation. An excerpt:
(§1) Identical protein amounts from each lysate sample were loaded onto polyacrylamide gel (6% or 10%), separated by electrophoresis (Hoefer Pharmacia Biotech Inc., San Francisco, USA) and transferred to nitrocellulose membrane (power supply: EPS 500/400, Amersham Pharmacia Biotech; nitrocellulose extra blotting membranes: Sartorius AG, Goettingen, Germany). A standard high molecular weight solution was loaded as a reference. For visualization of molecular weight bands, the membrane was immersed in Ponceau reagent (0.05% Ponceau, 5% acetic acid) for a few minutes, and then washed twice with TTN (10 mM Tris pH 7.4, 0.2% TWEEN 20, 170 mM NaCl) and once with water. The membrane was blocked overnight in TTN containing 5% milk (1% fat) (blocking TTN) and incubated for 90 minutes with PY20 antiphosphotyrosine antibody (Santa Cruz Biotechnology Inc., Santa Cruz, USA) diluted 1:2,000 in blocking TTN. The membrane was then washed with TTN (3×5 minutes), incubated for 90 minutes with a horseradish peroxidase-conjugated secondary antibody (Goat anti-mouse IgG H+L, Jackson ImResearch Laboratories, Inc., diluted 1:10,000 in blocking TTN), and finally washed again with TTN (3×5 minutes).

The target of data set [2] is T2, EGFR (Homo sapiens, UniProt P00533).
T2 construct: expressed in transfected cells; host or cells: NIH3T3 (DHER14 cells)
As to the kind of experiment: Selective-inhibition assay in DHER14 cells (receptor phosphotyrosine, Western blot). The data set is classed as cell-based. As to conditions: DHER14 cells expressing EGFR, 1 hour incubation, EGF stimulation. As to the method:
(§2) NIH3T3 cells transformed with either the EGFR (DHER14 cells), with the HER1-HER2 chimera (CSH12 cells) or with the PDGFR (NIH/PDGFR cells), decribed by Lee et al.; 1989, Honegger et al., 1988; and Shawver et al. 1997, and A431 human epidermoid vulval carcinoma cells were grown in Dulbecco's modified Eagle's medium (DMEM) (Biological industries, Kibbuts Beit Haemek, Israel) supplemented with 10% fetal calf serum and antibiotics (penicillin […], streptomycin 100 mg/liter) at 37° C. in 5% CO2.
(§3) Selective-inhibition assay: CSH12, DHER14 and […] cells, expressing either the HER1-HER2 chimera, EGFR or PDGFR, respectively, were used for the determination of inhibitory selectivity. Cells (7.5×10^4) were grown in 6-well plates (35 mm diameter, Nalge Nunc) for 24 hours and then incubated in 0.25% FCS-containing medium for an additional 24 hours to about 90% confluence. Duplicate sets of cells were treated with the tested compounds at varying concentrations for 1 hour. The final concentration of the vehicle in the medium was 0.05% DMSO, 0.1% EtOH. After removal of the inhibitor from the medium, PBS wash (×2) and addition of 0.25% serum-containing medium to the wells, the cells were stimulated with either 20 ng/mL human EGF for 5 minutes (CSH12 and DHER14 cells) or 50 ng/ml human PDGFββ for 10 minutes ([…] cells) at 37° C. […]
(A western blot detects proteins with antibodies after separation by electrophoresis.)

Data set [3] has as its target T3, EGFR-TK (Homo sapiens, UniProt P00533).
T3 construct: The supernatant, which contained the EGFR, was collected and frozen; endogenous in cells; host or cells: A431 cells (A1: Triton X-100 lysate captured on mAb108; A2: intact cells)
As to the kind of experiment: EGFR-TK autophosphorylation inhibition in intact A431 cells (irreversibility assay, Western blot). The data set is classed as cell-based. The settings on record: inhibitor concentration at which 50% inhibition was achieved eight hours post incubation, intact A431 cells, eight hours post incubation. The procedure:
A431 cells (5×10^5) were seeded in 6-well plates and grown for 24 hours to about 90% confluence in DMEM (high glucose) containing 10% fetal calf serum (FCS) and antibiotics at 37° C. The cells were then exposed to serum-free medium, at 37° C., for 18 hours.
[…] The medium was replaced thereafter with an inhibitor/FCS-free medium and the cells were divided into two groups: cells of the first group were immediately stimulated with EGF (20 ng/ml) for 5 minutes and then washed with PBS, while cells of the second group were incubated for additional 8 hours, at 37° C. During the 8 hours period, the medium was changed three times (after 2, 4 and 8 hours). After the post-incubation period, the cells of the second group were stimulated with EGF (20 ng/ml) for 5 minutes and then washed with PBS.
as §1
After the incubation, the media was replaced with inhibitor/FCS-free media and the inhibition effect was measured either immediately thereafter or after 8 hours post incubation.

For data set [4], the target named is PDGFR (Homo sapiens, UniProt P09619). As to the kind of experiment: Selective-inhibition assay in […] cells (receptor phosphotyrosine, Western blot). It is filed as cell-based. The settings on record: […] cells expressing PDGFR, 1 hour incubation, PDGFββ stimulation. The procedure:
as §2, §3

Structures are written as SMILES.

IC50 and melting point data for one compound are collected here from patent US20060025430A1, “Novel irreversible inhibitors of epidermal growth factor receptor tyrosine kinase and uses thereof for therapy and diagnosis” (priority 2003, published 2006).

T3 sequence (P00533 25-1210): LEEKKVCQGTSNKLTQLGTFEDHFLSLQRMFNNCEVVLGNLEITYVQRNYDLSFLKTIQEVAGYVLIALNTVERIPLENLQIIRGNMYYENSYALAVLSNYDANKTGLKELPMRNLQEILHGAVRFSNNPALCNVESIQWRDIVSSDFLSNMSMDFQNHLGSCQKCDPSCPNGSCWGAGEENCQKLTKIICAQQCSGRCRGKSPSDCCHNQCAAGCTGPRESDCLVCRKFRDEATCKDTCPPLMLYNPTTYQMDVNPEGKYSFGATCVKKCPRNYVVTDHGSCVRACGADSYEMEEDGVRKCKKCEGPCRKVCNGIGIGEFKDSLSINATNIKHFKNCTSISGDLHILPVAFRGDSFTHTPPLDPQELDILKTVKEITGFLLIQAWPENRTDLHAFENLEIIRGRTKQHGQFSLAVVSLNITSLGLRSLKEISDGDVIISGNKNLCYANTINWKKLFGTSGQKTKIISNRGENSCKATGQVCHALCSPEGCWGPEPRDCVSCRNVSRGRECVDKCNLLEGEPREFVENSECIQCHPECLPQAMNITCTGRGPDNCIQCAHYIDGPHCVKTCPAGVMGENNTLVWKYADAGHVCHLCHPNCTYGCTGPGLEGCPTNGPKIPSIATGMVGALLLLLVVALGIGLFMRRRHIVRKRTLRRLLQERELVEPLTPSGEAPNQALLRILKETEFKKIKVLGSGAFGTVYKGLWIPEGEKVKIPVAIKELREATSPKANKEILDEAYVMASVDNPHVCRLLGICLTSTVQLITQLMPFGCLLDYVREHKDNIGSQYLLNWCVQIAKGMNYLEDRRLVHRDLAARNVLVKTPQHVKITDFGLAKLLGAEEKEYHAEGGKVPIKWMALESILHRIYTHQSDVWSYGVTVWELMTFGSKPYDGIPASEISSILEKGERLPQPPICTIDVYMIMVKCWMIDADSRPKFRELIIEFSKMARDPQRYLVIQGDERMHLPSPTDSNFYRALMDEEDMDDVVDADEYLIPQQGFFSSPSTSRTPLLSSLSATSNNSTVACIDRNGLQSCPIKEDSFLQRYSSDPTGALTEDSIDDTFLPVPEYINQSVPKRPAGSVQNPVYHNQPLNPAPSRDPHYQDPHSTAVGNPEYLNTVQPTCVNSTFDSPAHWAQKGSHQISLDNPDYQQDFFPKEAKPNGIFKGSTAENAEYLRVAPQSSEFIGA
T2 sequence (P00533 25-1210): as above
Sequence of PDGFR (P09619 whole entry): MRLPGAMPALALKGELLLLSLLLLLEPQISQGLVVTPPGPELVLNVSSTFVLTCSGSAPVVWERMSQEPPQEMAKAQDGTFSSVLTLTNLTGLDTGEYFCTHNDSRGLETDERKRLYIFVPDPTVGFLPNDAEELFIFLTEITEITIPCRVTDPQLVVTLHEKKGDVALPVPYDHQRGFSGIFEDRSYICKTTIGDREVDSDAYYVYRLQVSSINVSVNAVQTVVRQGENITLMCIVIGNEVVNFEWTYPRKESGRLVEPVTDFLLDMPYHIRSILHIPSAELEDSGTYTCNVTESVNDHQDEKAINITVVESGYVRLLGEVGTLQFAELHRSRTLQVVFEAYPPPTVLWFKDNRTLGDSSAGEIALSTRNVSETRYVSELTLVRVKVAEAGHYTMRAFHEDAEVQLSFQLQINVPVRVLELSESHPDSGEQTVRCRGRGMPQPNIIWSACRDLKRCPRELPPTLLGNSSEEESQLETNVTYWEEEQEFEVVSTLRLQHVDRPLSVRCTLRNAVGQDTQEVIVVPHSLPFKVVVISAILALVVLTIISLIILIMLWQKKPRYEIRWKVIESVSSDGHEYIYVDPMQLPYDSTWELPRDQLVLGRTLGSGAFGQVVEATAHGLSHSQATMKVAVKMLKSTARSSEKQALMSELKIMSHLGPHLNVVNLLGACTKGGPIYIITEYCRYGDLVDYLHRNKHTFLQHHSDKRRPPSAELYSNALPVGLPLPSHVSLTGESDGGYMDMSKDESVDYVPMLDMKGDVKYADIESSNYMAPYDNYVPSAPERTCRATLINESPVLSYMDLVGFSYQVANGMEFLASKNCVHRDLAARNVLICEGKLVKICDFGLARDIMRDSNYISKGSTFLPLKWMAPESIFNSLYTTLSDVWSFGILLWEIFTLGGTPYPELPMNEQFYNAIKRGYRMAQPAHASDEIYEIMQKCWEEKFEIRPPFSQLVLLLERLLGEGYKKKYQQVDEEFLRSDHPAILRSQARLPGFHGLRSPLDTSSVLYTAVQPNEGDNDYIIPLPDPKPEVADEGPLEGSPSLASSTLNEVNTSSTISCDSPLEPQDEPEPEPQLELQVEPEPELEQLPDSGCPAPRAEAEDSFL
T1 sequence (P04626 with tags, fused parts or gaps): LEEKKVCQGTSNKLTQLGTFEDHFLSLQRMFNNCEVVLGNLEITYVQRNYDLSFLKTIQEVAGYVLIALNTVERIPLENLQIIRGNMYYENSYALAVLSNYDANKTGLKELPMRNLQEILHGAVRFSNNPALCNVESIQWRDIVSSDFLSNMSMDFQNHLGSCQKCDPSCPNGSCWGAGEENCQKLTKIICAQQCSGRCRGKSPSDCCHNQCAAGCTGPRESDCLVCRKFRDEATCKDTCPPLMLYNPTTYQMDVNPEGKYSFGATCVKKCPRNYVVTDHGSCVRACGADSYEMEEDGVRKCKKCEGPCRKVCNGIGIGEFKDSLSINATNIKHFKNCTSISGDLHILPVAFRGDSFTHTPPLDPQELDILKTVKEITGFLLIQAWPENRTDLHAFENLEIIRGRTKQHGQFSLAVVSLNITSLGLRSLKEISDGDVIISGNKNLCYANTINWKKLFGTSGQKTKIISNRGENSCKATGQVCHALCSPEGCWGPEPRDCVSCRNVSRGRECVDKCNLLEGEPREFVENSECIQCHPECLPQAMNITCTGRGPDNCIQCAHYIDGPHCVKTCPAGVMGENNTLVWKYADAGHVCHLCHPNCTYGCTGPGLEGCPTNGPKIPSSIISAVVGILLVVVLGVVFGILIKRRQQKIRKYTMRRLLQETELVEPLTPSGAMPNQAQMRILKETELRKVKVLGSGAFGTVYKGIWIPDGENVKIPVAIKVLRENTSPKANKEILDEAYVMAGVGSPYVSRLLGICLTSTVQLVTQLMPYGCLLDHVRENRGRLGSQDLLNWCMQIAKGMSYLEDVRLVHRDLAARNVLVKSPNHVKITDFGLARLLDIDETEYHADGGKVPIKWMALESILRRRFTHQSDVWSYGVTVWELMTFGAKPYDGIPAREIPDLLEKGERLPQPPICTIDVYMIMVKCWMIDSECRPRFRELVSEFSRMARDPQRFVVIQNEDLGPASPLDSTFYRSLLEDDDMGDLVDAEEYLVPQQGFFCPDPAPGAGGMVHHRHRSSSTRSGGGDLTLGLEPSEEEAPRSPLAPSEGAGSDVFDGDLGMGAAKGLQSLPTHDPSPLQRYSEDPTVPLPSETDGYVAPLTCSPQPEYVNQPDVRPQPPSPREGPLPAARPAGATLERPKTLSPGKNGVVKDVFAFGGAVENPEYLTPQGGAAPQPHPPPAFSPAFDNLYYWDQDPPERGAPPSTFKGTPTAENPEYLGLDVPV

For the compound `O=C(CCl)Nc1ccc2ncnc(Nc3cc(Cl)c(Cl)cc3F)c2c1` [Compound 5, N-{4-[(4,5-Dichloro-2-fluoro-phenyl)amino]-quinazolin-6-yl}-2-chloroacetamide], the melting point (usually the temperature of the solid-liquid transition) is more than 300 °C. Moreover, the IC50 (usually the concentration that gives 50% inhibition) in data set [1] is 0.025 to 0.05 µM. The same compound registered an IC50 in data set [2] of 0.005 to 0.015 µM. In addition, the half-inhibitory concentration (IC50) in data set [3] lay in the range of 0.01 to 0.05 µM. Besides, the half-inhibitory concentration (IC50) in data set [4] is more than 1 µM.
